These results are taken from ChEMBL document CHEMBL1131866, “Stereoisomeric acylamidomorpholinium carnitine analogues: selective inhibitors of carnitine palmitoyltransferase I and II” (Bioorg Med Chem Lett, 1999).

For the assay, the target named is T1, Carnitine O-palmitoyltransferase 2, mitochondrial (Rattus norvegicus) (UniProt P18886).
T1 sequence (whole entry): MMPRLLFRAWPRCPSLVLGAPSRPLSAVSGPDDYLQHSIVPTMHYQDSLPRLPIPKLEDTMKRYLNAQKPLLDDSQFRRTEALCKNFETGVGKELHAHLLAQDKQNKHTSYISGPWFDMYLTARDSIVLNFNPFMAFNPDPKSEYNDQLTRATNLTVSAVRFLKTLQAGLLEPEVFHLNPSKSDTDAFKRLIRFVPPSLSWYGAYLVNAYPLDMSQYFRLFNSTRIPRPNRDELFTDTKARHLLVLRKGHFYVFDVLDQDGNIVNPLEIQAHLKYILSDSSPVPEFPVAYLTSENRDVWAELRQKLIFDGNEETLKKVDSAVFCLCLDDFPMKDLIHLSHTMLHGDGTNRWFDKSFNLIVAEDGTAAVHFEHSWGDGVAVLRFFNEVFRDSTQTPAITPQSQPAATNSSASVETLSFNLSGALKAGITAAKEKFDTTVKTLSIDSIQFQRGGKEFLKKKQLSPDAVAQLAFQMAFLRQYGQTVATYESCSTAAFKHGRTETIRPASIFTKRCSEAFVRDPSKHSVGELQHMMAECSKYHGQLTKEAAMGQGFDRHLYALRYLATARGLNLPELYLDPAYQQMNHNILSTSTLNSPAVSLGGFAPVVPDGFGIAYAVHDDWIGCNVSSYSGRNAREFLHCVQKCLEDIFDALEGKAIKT
The assay is described as follows: Inhibitory activity against rat-liver mitochondrial Carnitine palmitoyl transferase II. To be noted: concentration not given here.

In general, inhibition refers to the relative decrease from the control value, in per cent. A higher inhibition goes with a strong effect. `CCCCCCCCCCCCCC(=O)NC[C@H]1C[N+](C)(C)C[C@@H](CC(=O)[O-])O1` came in with an inhibition of 41%.
